Each structure is given as a SMILES string. Where a name gives a salt, the structure may show the parent alone.

The values that follow come from patent US11117926B2, “Cholane derivatives for use in the treatment and/or prevention of FXR and TGR5/GPBAR1 mediated diseases” (BAR PHARMACEUTICALS S.R.L., priority 2014, dated 2021).

The target in one test is T1, FXR (Homo sapiens, UniProt Q96RI1).
T1 construct: expressed in transfected cells; host or cells: HepG2
T1 sequence (Q96RI1 1-486): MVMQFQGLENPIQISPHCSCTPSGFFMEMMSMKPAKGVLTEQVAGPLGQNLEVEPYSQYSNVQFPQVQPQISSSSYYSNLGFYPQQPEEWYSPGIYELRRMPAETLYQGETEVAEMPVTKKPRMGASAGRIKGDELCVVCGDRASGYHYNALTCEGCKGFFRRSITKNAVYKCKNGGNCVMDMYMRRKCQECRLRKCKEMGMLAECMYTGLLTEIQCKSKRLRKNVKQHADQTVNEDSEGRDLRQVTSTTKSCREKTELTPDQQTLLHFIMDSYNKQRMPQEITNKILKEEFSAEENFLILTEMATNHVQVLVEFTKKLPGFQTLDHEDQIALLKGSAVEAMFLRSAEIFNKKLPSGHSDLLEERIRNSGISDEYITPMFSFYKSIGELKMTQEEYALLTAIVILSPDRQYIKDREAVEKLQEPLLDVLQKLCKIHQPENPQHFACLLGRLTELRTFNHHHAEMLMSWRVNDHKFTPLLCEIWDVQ
T1 sequence (P19793 1-462 partner): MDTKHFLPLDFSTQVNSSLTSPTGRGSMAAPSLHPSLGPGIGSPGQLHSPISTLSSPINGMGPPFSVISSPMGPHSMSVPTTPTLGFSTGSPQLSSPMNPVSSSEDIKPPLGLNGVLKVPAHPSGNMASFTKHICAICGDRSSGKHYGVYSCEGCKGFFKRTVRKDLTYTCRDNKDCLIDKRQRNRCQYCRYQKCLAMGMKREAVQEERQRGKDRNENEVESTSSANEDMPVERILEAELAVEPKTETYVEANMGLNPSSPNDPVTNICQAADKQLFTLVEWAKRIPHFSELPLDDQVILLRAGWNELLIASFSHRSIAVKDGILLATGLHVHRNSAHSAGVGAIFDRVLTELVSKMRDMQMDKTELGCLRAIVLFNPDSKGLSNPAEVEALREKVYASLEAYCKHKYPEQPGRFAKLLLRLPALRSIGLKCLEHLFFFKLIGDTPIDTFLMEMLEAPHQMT
As to the kind of experiment: FXR mediated transactivation (luciferase reporter) in transfected HepG2 cells. To be noted: each compound at 10 microM, transactivation activity of CDCA on FXR = 100%. It is filed as cell-based. As to the method: (§1) Each compound was tested at the concentration of 10 microM and transactivation activity of CDCA on FXR and TLCA on CRE (i.e. TGR5/GPBAR1) was considered equal to 100%.
(§2) Biological Activities. Activity of selected compounds was tested in vitro using a whole cell model transfected with a reporter genes to establish selectivity of compounds shown in table 1 toward FXR and TGR5/GPBAR1 in comparison with chenodeoxycholic acid (CDCA) and TLCA. CDCA is a primary bile acid that functions as an endogenous ligand for FXR, while TLCA is a physiological ligand for TGR5/GPBAR1. In this assay, HepG2 cells (a liver-derived cell line) were cultured at 37° C. in minimum essential medium with Earl's salts containing 10% fetal bovine serum (FBS), 1% L-glutamine, and 1% penicillin/streptomycin. […] The transfection experiments were performed using Fugene HD according to manufactured specifications. Cells were plated in a 24-well plate at 5×10^4 cells/well. For FXR mediated transactivation, HepG2 cells were transfected with 100 ng of pSG5-FXR, 100 ng of pSG5-RXR, 100 ng of pGL4.70 a vector encoding the human Renilla gene and 250 ng of the reporter vector p(hsp27)-TK-LUC containing the FXR response element IR1 cloned from the promoter of heat shock protein 27 (hsp27).
(§3) At 24 h post-transfection, cells were stimulated for 18 h with 10 μM TLCA as a control agent or putative GPBAR1 agonists as the same concentration. After treatments, cells were lysed in 100 μL of lysis buffer (25 mM Tris-phosphate, pH 7.8; 2 mM DTT; 10% glycerol; 1% Triton X-100), and 20 μL of cellular lysate was assayed for luciferase activity using the luciferase assay system. Luminescence was measured using Glomax 20/20 luminometer. Luciferase activities were normalized against Renilla activities. Antagonism against FXR of GPBAR1/TGR5 was measured as percent of activity in transactivation assay suing activity of TLCA as example of agonism.
On the technique in general: A reporter such as luciferase makes a cellular process visible.

The next test addresses T2, human GPBAR1 (Homo sapiens, UniProt Q8TDU6).
T2 construct: expressed in transfected cells; host or cells: HEK-293T
T2 sequence (Q8TDU6 1-330): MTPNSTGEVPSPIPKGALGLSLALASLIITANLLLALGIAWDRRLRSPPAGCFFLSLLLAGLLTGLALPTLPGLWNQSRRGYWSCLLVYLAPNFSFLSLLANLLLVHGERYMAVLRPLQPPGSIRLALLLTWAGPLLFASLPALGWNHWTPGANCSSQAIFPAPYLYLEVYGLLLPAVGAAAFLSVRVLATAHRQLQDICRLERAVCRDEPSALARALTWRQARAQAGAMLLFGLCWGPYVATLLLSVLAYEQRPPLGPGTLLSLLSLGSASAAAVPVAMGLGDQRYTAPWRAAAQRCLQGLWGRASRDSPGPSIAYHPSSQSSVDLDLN
As to the kind of experiment: GPBAR1 mediated transactivation (CRE luciferase reporter) in transfected HEK-293T cells. The format is cell-based. To be noted: each compound at 10 microM, transactivation activity of TLCA on CRE = 100%. As for the experimental part:
as §1, §2, §3

`CC[C@H]1[C@@H](O)C2C3CC[C@H]([C@H](C)CC(=O)O)[C@@]3(C)CCC2[C@@]2(C)CCCC[C@@H]12` (stereo partly drawn) [BARn704, 6α-ethyl-7α-hydroxy-24-nor-5β-cholan-23-oic acid]: on FXR, the “FXR (% of activity in comparison to 10 μM CDCA)” value is on record as 202.5 ± 1.5%. Moreover, the “GPBAR1 (% of activity in comparison to 10 μM TLCA)” value at human GPBAR1 is on record as 64 ± 2.0%.

As for `CC[C@@H]1[C@@H](O)[C@@H]2[C@H](CC[C@]3(C)[C@@H]([C@H](C)CCCO)CC[C@@H]23)[C@@]2(C)CC[C@H](O)C[C@@H]12` [BAR709, 6β-ethyl-3β,7α-dihydroxy-5β-cholan-24-ol], the “FXR (% of activity in comparison to 10 μM CDCA)” value at FXR came to 33.7 ± 2.0%. On human GPBAR1, the “GPBAR1 (% of activity in comparison to 10 μM TLCA)” value stood at 54.2 ± 0.3%. The like results for `CC[C@@H]1[C@H](O)[C@@H]2[C@H](CC[C@]3(C)[C@@H]([C@H](C)CCCO)CC[C@@H]23)[C@@]2(C)CC[C@H](O)C[C@@H]12` [BAR708, 6β-ethyl-3β,7β-dihydroxy-5β-cholan-24-ol] were, in that order, 6.4 ± 0.8% and 57.6 ± 4.6%. The like results for `C[C@H](CCCCCO)[C@H]1CCC2C3C(CC[C@@]21C)[C@@]1(C)CC[C@@H](O)C[C@H]1C[C@@H]3O` (stereo partly drawn) [BAR304, 25, 26-bishomo-5β-cholan-3α, 7β, 26-triol] were, in that order, 0% and 55.1 ± 12.5%.

In the case of `CC[C@H]1[C@@H](O)C2C3CC[C@H]([C@H](C)CC(=O)O)[C@@]3(C)CCC2[C@@]2(C)CC[C@H](O)C[C@@H]12` (stereo partly drawn) [BARn710, 6α-ethyl-3β,7α-dihydroxy-24-nor-5β-cholan-23-oic acid], the “FXR (% of activity in comparison to 10 μM CDCA)” value at FXR turned out to be 142 ± 1.0%. Besides, the “GPBAR1 (% of activity in comparison to 10 μM TLCA)” value on human GPBAR1 is recorded as 75 ± 8.0%. As to `CC[C@@H]1[C@H](O)[C@@H]2[C@H](CC[C@]3(C)[C@@H]([C@H](C)CCCO)CC[C@@H]23)[C@@]2(C)CCCC[C@@H]12` [BAR702, 6β-ethyl-7β-hydroxy-5β-cholan-24-ol], on FXR, the “FXR (% of activity in comparison to 10 μM CDCA)” value is 11.7 ± 0.8%. For the same compound, the “GPBAR1 (% of activity in comparison to 10 μM TLCA)” value on human GPBAR1 is 35.8 ± 1.2%. The like results for `CC[C@H]1[C@H](O)[C@@H]2[C@H](CC[C@]3(C)[C@@H]([C@H](C)CCCO)CC[C@@H]23)[C@@]2(C)CCCC[C@@H]12` [BAR703, 6α-ethyl-7β-hydroxy-5β-cholan-24-ol] were, in that order, 8.6 ± 0.8% and 47.7 ± 1.0%. Consider `CC[C@H]1[C@@H](O)[C@@H]2[C@H](CC[C@]3(C)[C@@H]([C@H](C)CCC(=O)O)CC[C@@H]23)[C@@]2(C)CCCC[C@@H]12` [BAR704, 6α-ethyl-7α-hydroxy-5β-cholan-24-oic acid], for which the “FXR (% of activity in comparison to 10 μM CDCA)” value at FXR was 220.5 ± 37.5%. In addition, on human GPBAR1, the “GPBAR1 (% of activity in comparison to 10 μM TLCA)” value worked out at 27.9 ± 6.3%. The like results for `C[C@H](CCCCC(=O)O)[C@H]1CCC2C3C(CC[C@@]21C)[C@@]1(C)CC[C@@H](O)C[C@H]1C[C@@H]3O` (stereo partly drawn) [BAR305, 3α, 7β-dihydroxy-25, 26-bishomo-5β-cholan-26-oic acid] were, in that order, 0% and 23.9 ± 4.0%. The like results for `CC[C@H]1[C@@H](O)C2C3CC[C@H]([C@H](C)CCCCCOS(=O)(=O)O)[C@@]3(C)CCC2[C@@]2(C)CC[C@@H](O)C[C@@H]12` (stereo partly drawn) [BAR804, 6α-ethyl-3α, 7α-dihydroxy-25, 26-bishomo-5β-cholan-26-yl-26-sodium sulfate] were, in that order, 196.5 ± 6.5% and 52.5 ± 3.5%. `CC[C@H]1[C@@H](O)C2C3CC[C@H]([C@H](C)CCCCCO)[C@@]3(C)CCC2[C@@]2(C)CC[C@@H](O)C[C@@H]12` (stereo partly drawn) [BAR803, 6α-ethyl-3α, 7α-dihydroxy-25, 26-bishomo-5β-cholan-26-ol]: at FXR, the “FXR (% of activity in comparison to 10 μM CDCA)” value was determined as 122.5 ± 5.5%. Moreover, the “GPBAR1 (% of activity in comparison to 10 μM TLCA)” value on human GPBAR1 is 80.5 ± 5.0%. On to `CC[C@H]1[C@@H](O)[C@@H]2[C@H](CC[C@]3(C)[C@@H]([C@H](C)CCCO)CC[C@@H]23)[C@@]2(C)CC[C@H](O)C[C@@H]12` [BAR706, 6α-ethyl-3β,7α-dihydroxy-5β-cholan-24-ol], for which the “FXR (% of activity in comparison to 10 μM CDCA)” value at FXR was determined as 153 ± 9.0%. Besides, at human GPBAR1, the “GPBAR1 (% of activity in comparison to 10 μM TLCA)” value came out at 66.05 ± 7.6%.

Consider `CC[C@H]1[C@@H](O)C2C3CC[C@H]([C@H](C)CC#N)[C@@]3(C)CCC2[C@@]2(C)CC[C@@H](O)C[C@@H]12` (stereo partly drawn) [BAR506, 6α-ethyl-3α,7α-dihydroxy-24-nor-5β-cholan-23-nitrile], for which the “FXR (% of activity in comparison to 10 μM CDCA)” value at FXR came to 411.5 ± 36.5%. Further, on human GPBAR1, the “GPBAR1 (% of activity in comparison to 10 μM TLCA)” value was found to be 80.9 ± 9.5%. The like results for `CC[C@H]1[C@@H](O)C2C3CC[C@H]([C@H](C)CCO)[C@@]3(C)CCC2[C@@]2(C)CCCC[C@@H]12` (stereo partly drawn) [BARn701, 6α-ethyl-7α-hydroxy-24-nor-5β-cholan-23-ol] were, in that order, 90 ± 22% and 55 ± 1.0%.

`CC[C@H]1[C@@H](O)[C@@H]2[C@H](CC[C@]3(C)[C@@H]([C@H](C)CCCO)CC[C@@H]23)[C@@]2(C)CCCC[C@@H]12` [BAR701, 6α-ethyl-7α-hydroxy-5β-cholan-24-ol]: the “FXR (% of activity in comparison to 10 μM CDCA)” value on FXR was 101.3 ± 10.1%. In addition, the “GPBAR1 (% of activity in comparison to 10 μM TLCA)” value at human GPBAR1 is recorded as 50.2 ± 2.3%. The like results for `CC=C1[C@H](O)[C@@H]2[C@H](CC[C@]3(C)[C@@H]([C@H](C)CCCO)CC[C@@H]23)[C@@]2(C)CC[C@@H](O)C[C@@H]12` [BAR503, 6-ethylidene-3α,7β-dihydroxy-5β-cholan-24-ol] were, in that order, 68.8 ± 26.6% and 59.8 ± 0.1%. Regarding `CC[C@@H]1[C@H](O)C2C3CC[C@H]([C@H](C)CCO)[C@@]3(C)CCC2[C@@]2(C)CC[C@@H](O)C[C@@H]12` (stereo partly drawn) [BARn501, 6β-ethyl-3α, 7β-dihydroxy-24-nor-5β-cholan-23-ol], at FXR, the “FXR (% of activity in comparison to 10 μM CDCA)” value is 8.5 ± 1.4%. Besides, the “GPBAR1 (% of activity in comparison to 10 μM TLCA)” value at human GPBAR1 came to 83.1 ± 7.4%. The like results for `CC[C@H]1[C@@H](O)C2C3CC[C@H]([C@H](C)CCO)[C@@]3(C)CCC2[C@@]2(C)CC[C@H](O)C[C@@H]12` (stereo partly drawn) [BARn706, 6α-ethyl-3β,7α-dihydroxy-24-nor-5β-cholan-23-ol] were, in that order, 197.5 ± 4.5% and 69.5 ± 6.5%. Turning to `CC[C@H]1[C@@H](O)C2C3CC[C@H]([C@H](C)CCOS(=O)(=O)O)[C@@]3(C)CCC2[C@@]2(C)CC[C@H](O)C[C@@H]12` (stereo partly drawn) [BARn706solf, 6α-ethyl-3β,7α-dihydroxy-24-nor-5β-cholan-23-yl 23-sodium sulfate], the “GPBAR1 (% of activity in comparison to 10 μM TLCA)” value on human GPBAR1 was 71.5 ± 0.5%.
